Key:
[1] = biological target: T1, hPPARα (Homo sapiens, UniProt Q07869); experiment: PPAR receptor transactivation assay (UAS-bla Gal4, HEK293); type: cell-based; settings: PPARα
T1 construct: expressed in transfected cells; host or cells: Jump-In GripTite HEK293
Procedure: (§1) Compound I was tested on all three human PPAR subtypes (hPPAR): hPPARα, hPPARγ, and hPPARδ in vitro assays testing for such activity.
(§2) Compound I was tested on all three human PPAR subtypes (hPPAR): hPPARα, hPPARγ, and hPPARδ. All assays were repeated at least three times for each subtype.
(§3) The genes of interest were synthesized and cloned into an appropriate Jump-In™ retargeting vector following the User Guide of the Jump-in™ T-REx™ HEK293 Retargeting Kit (ThermoFisher Catalog No A15008). For example, the vector will be used to transfect and retarget the Jump-In™ HEK293 GripTite™ parental cell line. Stable pools will be antibiotic-selected for about 21 days and tested for target gene expression by functional assay.
(§4) Jump-In™ GripTite™ HEK293 parental cells were plated at 60-80% confluency in a T-75 flask in growth medium without antibiotics and transfected with a 1:1 ratio of expression construct and R4 integrase expression construct (20 μg DNA total) using Lipofectamine® LTX (50 μL) and PLUS™ Reagent (20 μL). Following a 48 hours incubation, cells were selected with 600 μg/mL Geneticin® and 10 μg/mL Blasticidin for ˜21 days in growth medium.
(§5) Jump-In™ GripTite™ HEK293 rPPAR Alpha, Delta or Gamma UAS-bla-Gal4 cell pools were plated in a 384-well plate format (20,000 cells per well) in OptiMeM without FBS in replicates (n=4). Cells were allowed to adhere for 8 hours before addition of Compound I (1 mM top concentration, 3-fold dilutions, 10-point titration). After 16 hours, the cells were loaded with LiveBLAzer®, a fluorescent BLA substrate that gives a blue/green readout of expressing/non-expressing cells, respectively. The blue/green readout was measured on a fluorescent plate reader (Tecan Safire II).

[2] = biological target: T2, hPPARδ (Homo sapiens, UniProt Q03181); experiment: as above; type: cell-based
T2 construct: expressed in transfected cells; host or cells: Jump-In GripTite HEK293
T2 sequence (Q03181 1-441): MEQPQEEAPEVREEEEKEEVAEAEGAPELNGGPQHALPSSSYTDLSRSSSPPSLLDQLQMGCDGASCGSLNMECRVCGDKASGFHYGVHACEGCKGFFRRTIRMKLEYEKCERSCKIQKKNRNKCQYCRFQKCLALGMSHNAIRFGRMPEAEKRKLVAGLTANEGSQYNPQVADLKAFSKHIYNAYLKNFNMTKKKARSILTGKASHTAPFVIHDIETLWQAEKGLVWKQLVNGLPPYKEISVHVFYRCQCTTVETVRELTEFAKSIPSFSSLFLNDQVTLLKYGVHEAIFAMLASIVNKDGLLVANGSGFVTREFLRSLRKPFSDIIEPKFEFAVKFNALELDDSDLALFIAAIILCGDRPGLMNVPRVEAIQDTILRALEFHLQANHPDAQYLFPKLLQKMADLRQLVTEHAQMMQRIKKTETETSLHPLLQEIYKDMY
Procedure: as §1, §2, §3, §4, §5

[3] = system: patients with FAOD (CPT2, VLCAD, LCHAD, TFP); experiment: Clinical trial for fatty acid oxidation disorder (FAOD); type: in vivo, human; settings: for 12 MWT Mean Change / MFIS Total Mean Change / SF-36 Energy/Fatigue Mean Change / decrease in MFIS / increase in SF-36 energy/fatigue domain: Baseline to Week 12
Source text: Purpose: The purposes of this study were: to assess the safety and tolerability of 12 weeks treatment with Compound I, or a pharmaceutically acceptable salt or solvate thereof (e.g., Compound II), in patients with FAOD; to investigate pharmacokinetics of Compound I, or a pharmaceutically acceptable salt or solvate thereof (e.g., Compound II), in patients with FAOD treated with Compound I, or a pharmaceutically acceptable salt or solvate thereof (e.g., Compound II); to investigate the pharmacodynamics effects of Compound I, or a pharmaceutically acceptable salt or solvate thereof (e.g., Compound II), in patients with FAOD treated with Compound I, or a pharmaceutically acceptable salt or solvate thereof (e.g., Compound II).
Intervention: Patients were administered 10-200 mg of Compound I, or a pharmaceutically acceptable salt or solvate thereof (e.g., Compound II), per day as single agent or in combination. In one cohort, patients received 50 mg of Compound I, or a pharmaceutically acceptable salt or solvate thereof (e.g., Compound II), once daily for a total of 12 weeks. In another cohort, patients received 100 mg of Compound I, or a pharmaceutically acceptable salt or solvate thereof (e.g., Compound II), once daily for a total of 12 weeks.
Detailed Description: Patients were given Compound I, or a pharmaceutically acceptable salt or solvate thereof, orally once a day.
Inclusion Criteria: Confirmed diagnosis of one of the following: carnitine palmitoyl transferase II deficiency (CPT2), very long-chain Acyl-CoA dehydrogenase deficiency (VLCAD), long-chain 3-hydroxyacyl-CoA dehydrogenase deficiency (LCHAD), or trifunctional protein deficiency (TFP).
Primary Outcome Measures: Safety Endpoints included: number and severity of adverse events. Absolute values, changes from baseline at Week 12 and incidence of clinically significant changes in: laboratory safety tests; electrocardiograms; supine vital signs; evaluation of events of special interest (rhabdomyolysis) and clinically significant changes in laboratory parameters of muscle injury including total CPK, adolase, and cardiac specific troponin (cTn).
Pharmacodynamic Endpoints included: Absolute values and changes from baseline at Week 12 in: whole body fatty acid oxidation (^13CO2 production) and blood acylcarnitines (UHPLC-MS/MS method).
Secondary Outcome Measures: Assessment of the change from baseline following 12 weeks of treatment with Compound I, or a pharmaceutically acceptable salt or solvate thereof (e.g., Compound II), in: submaximal treadmill exercise tolerance; distance walked during a 12 minute walk test; 36-Item Short Form Survey (SF-36) total score and subscales (questions 3-12). Change from baseline in Fatigue Impact Scale score (every visit). Change from baseline in Brief Pain Inventory (short form) (every visit). Blood inflammatory cytokines (Multiplex Immunoassay for sE-Selectin; GM-CSF; ICAM-1/CD54; IFN alpha; IFN gamma; IL-1 alpha; IL-1 beta; IL-4; IL-6; IL-8; IL-10; IL-12p70; IL-13; IL-17A/CTLA-8; IP-10/CXCL10; MCP-1/CCL2; MIP-1alpha/CCL3; MIP-1 beta/CCL4; sP-Selectin; TNF alpha).

[4] = 24 patients, 50 or 100 mg/day, 12 weeks

T1 sequence (Q07869 whole entry, the tested form may be a part): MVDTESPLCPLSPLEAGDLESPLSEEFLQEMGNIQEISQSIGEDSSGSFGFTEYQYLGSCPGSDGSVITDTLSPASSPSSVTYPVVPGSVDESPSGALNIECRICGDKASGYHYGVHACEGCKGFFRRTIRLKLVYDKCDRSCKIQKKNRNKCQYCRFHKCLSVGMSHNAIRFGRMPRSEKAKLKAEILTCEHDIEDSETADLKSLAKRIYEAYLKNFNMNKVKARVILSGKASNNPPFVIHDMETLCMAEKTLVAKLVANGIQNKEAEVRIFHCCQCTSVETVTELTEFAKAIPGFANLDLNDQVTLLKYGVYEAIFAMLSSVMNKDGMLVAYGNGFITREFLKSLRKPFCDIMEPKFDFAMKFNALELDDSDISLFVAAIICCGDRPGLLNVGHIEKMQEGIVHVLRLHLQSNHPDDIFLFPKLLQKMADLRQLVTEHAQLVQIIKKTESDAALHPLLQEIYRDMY

agonist type [1]: partial agonist
agonist type ([2]; PPARδ): full agonist
selectivity for PPARδ over PPARα ([2]; PPARδ over PPARα): 100 fold
selectivity for PPARδ over PPARγ ([2]; PPARδ over PPARγ): 400 fold
patients discontinuing treatment [3, 4]: 12.5%
Structure (SMILES): Cc1cc(OC/C=C(/c2ccc(F)cc2)c2ccc(C#CCN3CCOCC3)cc2)ccc1OCC(=O)O [Compound I, (E)-2-(4-((3-(4-fluorophenyl)-3-(4-(3-morpholinoprop-1-yn-1-yl)phenyl)allyl)oxy)-2-methylphenoxy)acetic acid]
distance walked during a 12-minute walk test ([3]; 50 mg once daily, 12 weeks): able to increase distance walked
exhaled 13CO2 ([3]; 50 mg once daily, 12 weeks): trend towards increases
heart rate during the last ten minutes of exercise ([3]; 50 mg once daily, 12 weeks): decreases
TEAEs reported as study drug related [3, 4]: 30%
patients reporting rhabdomyolysis (most common TEAE) [3, 4]: 16.7%
patients reporting treatment-emergent adverse events (TEAEs) [3, 4]: 75%
severity of the majority of study drug related TEAEs [3, 4]: mild or moderate
12 MWT Mean Change ([3]; CPT2 subgroup): 51.9 meters
MFIS Total Mean Change ([3]; CPT2 subgroup): 1.0
SF-36 Energy/Fatigue Mean Change ([3]; CPT2 subgroup): 0.8
tolerability ([3]; FAOD patients): well tolerated
12 MWT Mean Change ([3]; LCHAD subgroup): 73.7 meters
MFIS Total Mean Change ([3]; LCHAD subgroup): −9.8
SF-36 Energy/Fatigue Mean Change ([3]; LCHAD subgroup): 19.5
decrease in MFIS ([3]; LCHAD subgroup): 9.8 point
increase in SF-36 energy/fatigue domain ([3]; LCHAD subgroup): 19.5 point
decrease in MFIS ([3]; TFP subgroup (n = 2)): 8.0 point
increase in SF-36 energy/fatigue domain ([3]; TFP subgroup (n = 2)): 25.0 point
12 MWT Mean Change ([3]; VLCAD subgroup): −36.7 meters
MFIS Total Mean Change ([3]; VLCAD subgroup): 15.6
SF-36 Energy/Fatigue Mean Change ([3]; VLCAD subgroup): −17.8
